According to patent US20140005163A1 (NOVARTIS AG, priority 2010, published 2014):
In brackets after ≈: the same amount, converted by molar mass.

How the values were obtained:
[1] = molecular target: T1, PI3K beta (Homo sapiens, UniProt P42338); test: PI3K beta kinase assay (Kinase-Glo luminescence); type: biochemical
T1 construct: for the full-length p110-b subunit are generated and fused by overlapping PCR; p85(iSH2) fusion partner (see partner chain) (N); His tag (C); made in house; host or cells: baculovirus; Tn5 (Trichoplusia ni) or TiniPro insect cells
In short: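 IC50 is derived by four-parameter logistic curve fitting of Kinase-Glo luminescence, which measures ATP left after a 60 min room-temperature reaction. Conditions are 25 nM His-tagged p85(iSH2)-p110β, 1 μM ATP and 10 μg/mL bovine liver phosphatidylinositol.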

[2] = molecular target: T2, PI3K gamma (Homo sapiens, UniProt P48736); test: PI3K gamma kinase assay (Kinase-Glo luminescence); type: biochemical
T2 construct: His tag (C); made in house; host or cells: baculovirus (pVL1393); Tn5 or TiniPro insect cells; construct from Roger Williams lab, MRC LMB
In short: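 PI3Kγ (150 nM) reaction run 120 min at room temperature with phosphatidylinositol substrate (10 μg/mL) and ATP (1 μM) in Tris pH 7.5 buffer containing MgCl2, NaCl, CHAPS and DTT. Remaining ATP detected by Kinase-Glo luminescence; 8 concentrations per compound, IC50 from 4-parameter curve fitting.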

[3] = Cellular CaCo2 permeability assay from apical to basal (A-B); type: in vitro ADME; conditions: human, Caco-2, read-out: Pe A-B (permeability)
Source text: The permeability in 10^−6 cm/s of compounds of formula (I) have been confirmed for selected example using a cellular CaCo2 permeability assay from apical to basal (A-B): […]

[4] = Solubility in the organic solvents PEG400, propyleneglycol and ethanol; type: physicochemical; conditions: organic solvent or mixture
Source text: Compounds of the invention display particularly high solubilities in organic solvents. The compounds of the invention are thus particularly useful for topical administration, e.g. to a mammal such as a human, e.g. to the skin of said mammal. The compounds are thus useful for formulation into compositions suitable for topical administration. Compounds displaying high solubility thus provide an advantage for topical administration over compounds having a lower solubility.
The solubility of certain compounds was determined in the organic solvents PEG400, propyleneglycol and ethanol.

[5] = absolute ethanol, excipient Ethanol abs.
[6] = propylene glycol, excipient Propyleneglycol

T1 sequence (P42338 with tags, fused parts or gaps limits assumed): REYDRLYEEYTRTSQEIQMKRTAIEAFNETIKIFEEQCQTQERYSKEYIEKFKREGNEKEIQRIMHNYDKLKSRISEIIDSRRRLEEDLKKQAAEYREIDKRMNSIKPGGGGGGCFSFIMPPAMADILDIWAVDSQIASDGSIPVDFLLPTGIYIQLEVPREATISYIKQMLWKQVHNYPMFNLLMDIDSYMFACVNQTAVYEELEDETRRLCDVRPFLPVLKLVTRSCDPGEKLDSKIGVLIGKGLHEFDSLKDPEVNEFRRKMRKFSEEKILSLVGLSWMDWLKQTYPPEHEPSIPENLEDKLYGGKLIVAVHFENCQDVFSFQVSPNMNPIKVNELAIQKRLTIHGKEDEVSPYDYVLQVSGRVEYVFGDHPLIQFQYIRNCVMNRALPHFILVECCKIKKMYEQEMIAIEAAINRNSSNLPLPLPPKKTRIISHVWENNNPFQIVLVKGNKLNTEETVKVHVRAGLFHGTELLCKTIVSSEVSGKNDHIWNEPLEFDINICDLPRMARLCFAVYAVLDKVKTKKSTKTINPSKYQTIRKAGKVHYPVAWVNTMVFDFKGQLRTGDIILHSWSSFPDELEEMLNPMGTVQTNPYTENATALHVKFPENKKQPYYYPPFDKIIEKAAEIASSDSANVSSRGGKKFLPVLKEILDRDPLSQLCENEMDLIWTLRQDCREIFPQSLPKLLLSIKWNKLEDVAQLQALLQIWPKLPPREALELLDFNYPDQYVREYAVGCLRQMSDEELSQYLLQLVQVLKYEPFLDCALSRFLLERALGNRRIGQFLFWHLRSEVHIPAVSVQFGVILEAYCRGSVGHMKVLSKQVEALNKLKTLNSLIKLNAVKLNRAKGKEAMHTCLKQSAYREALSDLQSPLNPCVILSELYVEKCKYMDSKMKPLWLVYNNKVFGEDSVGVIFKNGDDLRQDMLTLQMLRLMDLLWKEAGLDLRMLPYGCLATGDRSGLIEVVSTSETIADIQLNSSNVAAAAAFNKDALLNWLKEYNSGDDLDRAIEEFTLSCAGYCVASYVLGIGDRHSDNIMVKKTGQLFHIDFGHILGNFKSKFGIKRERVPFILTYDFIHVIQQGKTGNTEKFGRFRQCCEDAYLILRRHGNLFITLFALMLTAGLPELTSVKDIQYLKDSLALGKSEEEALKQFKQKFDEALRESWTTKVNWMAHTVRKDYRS
T2 sequence (P48736 144-1102 limits assumed): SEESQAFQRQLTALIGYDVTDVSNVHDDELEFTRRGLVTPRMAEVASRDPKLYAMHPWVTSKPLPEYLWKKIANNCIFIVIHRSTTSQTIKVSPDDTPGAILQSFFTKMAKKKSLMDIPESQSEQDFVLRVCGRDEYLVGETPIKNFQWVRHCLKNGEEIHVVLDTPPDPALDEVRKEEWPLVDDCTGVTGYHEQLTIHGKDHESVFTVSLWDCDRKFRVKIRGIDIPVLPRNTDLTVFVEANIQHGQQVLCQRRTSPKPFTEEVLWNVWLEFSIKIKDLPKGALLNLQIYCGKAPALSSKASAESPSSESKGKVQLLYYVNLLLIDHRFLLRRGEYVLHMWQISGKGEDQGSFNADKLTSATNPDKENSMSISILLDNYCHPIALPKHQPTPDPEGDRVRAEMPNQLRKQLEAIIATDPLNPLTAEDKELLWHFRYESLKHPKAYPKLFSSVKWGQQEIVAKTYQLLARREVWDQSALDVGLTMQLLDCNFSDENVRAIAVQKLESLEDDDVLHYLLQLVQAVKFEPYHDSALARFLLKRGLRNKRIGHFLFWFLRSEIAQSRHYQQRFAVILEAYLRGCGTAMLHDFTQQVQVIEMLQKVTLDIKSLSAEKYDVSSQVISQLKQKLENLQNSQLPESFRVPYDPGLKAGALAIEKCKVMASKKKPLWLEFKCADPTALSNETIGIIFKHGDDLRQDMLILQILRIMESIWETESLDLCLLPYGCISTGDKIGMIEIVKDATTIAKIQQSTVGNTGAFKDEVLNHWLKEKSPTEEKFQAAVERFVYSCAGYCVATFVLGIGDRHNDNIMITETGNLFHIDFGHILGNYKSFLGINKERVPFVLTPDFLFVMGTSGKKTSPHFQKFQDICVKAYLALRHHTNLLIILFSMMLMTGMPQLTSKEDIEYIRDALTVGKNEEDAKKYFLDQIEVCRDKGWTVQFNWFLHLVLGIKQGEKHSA

| SMILES | IC50 [1] [nM] | IC50 [2] [nM] | Papp A→B [3] [×10⁻⁶ cm/s] | solubility [4, 5] [mg/mL] | solubility ([4]; excipient PEG400) [mg/mL] | solubility [4, 6] [mg/mL] |
| --- | --- | --- | --- | --- | --- | --- |
| COCc1ncc(-c2ccc3ncc4c(c3c2)n(-c2cn(C)nc2C)c(=O)n4C)cc1OC(C)C [Example 191.1, 1-(1,3-Dimethyl-1H-pyrazol-4-yl)-8-(5-isopropoxy-6-methoxymethyl-pyridin-3-yl)-3-methyl-1,3-dihydro-imidazo[4,5-c]quinolin-2-one] | 24 | – | – | > 24 | > 23 | > 19 |
| CCn1cc(-n2c(=O)n(C)c3cnc4ccc(-c5ccc(NC)nc5)cc4c32)c(C)n1 [Example 118.4, 1-(1-Ethyl-3-methyl-1H-pyrazol-4-yl)-3-methyl-8-(6-methylamino-pyridin-3-yl)-1,3-dihydro-imidazo[4,5-c]quinolin-2-one] | 130 | – | 15.9 | – | – | – |
| Cc1nn(C(C)C)cc1-n1c(=O)n(C)c2cnc3ccc(-c4ccc(N(C)C)nc4)cc3c21 [Example 4.1, 8-(6-Dimethylamino-pyridin-3-yl)-1-(1-isopropyl-3-methyl-1H-pyrazol-4-yl)-3-methyl-1,3-dihydro-imidazo[4,5-c]quinolin-2-one] | 762 | 407 | 35.1 | 4.11 (≈ 9.31 mM) | > 20 | > 20 |
| COc1ncc(-c2ccc3ncc4c(c3c2)n(-c2cn(C)nc2C)c(=O)n4C)cc1[N+](=O)[O-] [Example 66, 1-(1,3-dimethyl-1H-pyrazol-4-yl)-8-(6-methoxy-5-nitro-pyridin-3-yl)-3-methyl-1,3-dihydro-imidazo[4,5-c]quinolin-2-one] | 56 | 356 | – | – | – | – |
| COc1ccc(-c2ccc3ncc4c(c3c2)n(-c2cn(C)nc2C)c(=O)n4C)cc1OC [Example 1.8, 8-(3,4-Dimethoxy-phenyl)-1-(1,3-dimethyl-1H-pyrazol-4-yl)-3-methyl-1,3-dihydro-imidazo[4,5-c]quinolin-2-one] | 20 | 144 | 28.6 | – | – | – |
| COc1ccc(-c2ccc3ncc4[nH]c(=O)n(-c5cn(C)nc5C)c4c3n2)cc1OC [Example 249, 8-(3,4-dimethoxy-phenyl)-1-(1,3-dimethyl-1H-pyrazol-4-yl)-1,3-dihydro-1,3,5,9-tetraaza-cyclopenta[a]naphthalen-2-one] | 33 | 125 | 22.1 | – | – | – |
| COCCOc1ccc(-c2ccc3ncc4c(c3c2)n(-c2cn(C)nc2C)c(=O)n4C)cn1 [Example 18, 1-(1,3-Dimethyl-1H-pyrazol-4-yl)-8-[6-(2-methoxy-ethoxy)-pyridin-3-yl]-3-methyl-1,3-dihydro-imidazo[4,5-c]quinolin-2-one] | 252 | 397 | – | – | – | – |
| CNC(=O)c1ccc(-c2ccc3ncc4c(c3c2)n(-c2cn(C(C)C)nc2C)c(=O)n4C)cn1 [Example 15.3, 5-[1-(1-Isopropyl-3-methyl-1H-pyrazol-4-yl)-3-methyl-2-oxo-2,3-dihydro-1H-imidazo[4,5-c]quinolin-8-yl]-pyridine-2-carboxylic acid methylamide] | 526 | 325 | – | – | – | – |
| Cc1nn(C)cc1-n1c(=O)n(C)c2cnc3ccc(-c4ccc(OCCO)nc4)cc3c21 [Example 107, 1-(1,3-Dimethyl-1H-pyrazol-4-yl)-8-[6-(2-hydroxy-ethoxy)-pyridin-3-yl]-3-methyl-1,3-dihydro-imidazo[4,5-c]quinolin-2-one] | 95 | 147 | – | – | – | – |
| Cc1nn(C)cc1-n1c(=O)n(C)c2cnc3ccc(-c4cnc5c(c4)ncn5C)cc3c21 [Example 74, 1-(1,3-Dimethyl-1H-pyrazol-4-yl)-3-methyl-8-(3-methyl-3H-imidazo[4,5-b]pyridin-6-yl)-1,3-dihydro-imidazo[4,5-c]quinolin-2-one] | 370 | 307 | – | – | – | – |
| COc1ccc(-c2ccc3ncc4c(c3c2)n(-c2cn(C(C)C)nc2C)c(=O)n4C)cn1 [Example 2.8, 1-(1-Isopropyl-3-methyl-1H-pyrazol-4-yl)-8-(6-methoxy-pyridin-3-yl)-3-methyl-1,3-dihydro-imidazo[4,5-c]quinolin-2-one] | 109 | 205 | – | – | – | – |

Other lines, results leading:

| IC50 [1] [nM] | IC50 [2] [nM] | Papp A→B [3] [×10⁻⁶ cm/s] | solubility [4, 5] [mg/mL] | solubility ([4]; excipient PEG400) [mg/mL] | solubility [4, 6] [mg/mL] | SMILES |
| --- | --- | --- | --- | --- | --- | --- |
| 171 | 489 | 5.6 | – | – | – | Cc1nn(C)cc1-n1c(=O)n(C)c2cnc3ccc(-c4ccc(CO)nc4)cc3c21 [Example 16.2, 1-(1,3-Dimethyl-1H-pyrazol-4-yl)-8-(6-hydroxymethyl-pyridin-3-yl)-3-methyl-1,3-dihydro-imidazo[4,5-c]quinolin-2-one] |
| 15 | 75 | 18.4 | – | – | – | CCOc1cc(-c2ccc3ncc4c(c3c2)n(-c2cn(CC)nc2C)c(=O)n4C)ccc1OC [Example 28.1, 8-(3-Ethoxy-4-methoxy-phenyl)-1-(1-ethyl-3-methyl-1H-pyrazol-4-yl)-3-methyl-1,3-dihydro-imidazo[4,5-c]quinolin-2-one] |
| 5 | – | 26.1 | – | – | – | Cc1ncc(-c2ccc3ncc4c(c3c2)n(-c2cn(C)nc2C)c(=O)n4C)cc1OC(CF)CF [Example 189, 1-(1,3-Dimethyl-1H-pyrazol-4-yl)-8-[5-(2-fluoro-1-fluoromethyl-ethoxy)-6-methyl-pyridin-3-yl]-3-methyl-1,3-dihydro-imidazo[4,5-c]quinolin-2-one] |
| 495 | – | 29.7 | – | – | – | CCn1cc(-n2c(=O)n(C)c3cnc4ccc(-c5cnc(N(C)C)nc5)cc4c32)c(C)n1 [Example 6.4, 8-(2-Dimethylamino-pyrimidin-5-yl)-1-(1-ethyl-3-methyl-1H-pyrazol-4-yl)-3-methyl-1,3-dihydro-imidazo[4,5-c]quinolin-2-one] |
| 340 | 357 | 31.2 | – | – | – | CCOc1ccc(-c2ccc3ncc4c(c3c2)n(-c2cn(CC)nc2C)c(=O)n4C)cn1 [Example 3.5, 8-(6-Ethoxy-pyridin-3-yl)-1-(1-ethyl-3-methyl-1H-pyrazol-4-yl)-3-methyl-1,3-dihydro-imidazo[4,5-c]quinolin-2-one] |
| 239 | 150 | – | – | – | – | CCn1cc(-n2c(=O)n(C)c3cnc4ccc(-c5ccc(OCCOC)c(OC)c5)cc4c32)c(C)n1 [Example 30.2, 1-(1-Ethyl-3-methyl-1H-pyrazol-4-yl)-8-[3-methoxy-4-(2-methoxy-ethoxy)-phenyl]-3-methyl-1,3-dihydro-imidazo[4,5-c]quinolin-2-one] |
| 506 | 278 | – | – | – | – | Cc1nn(C)cc1-n1c(=O)n(C)c2cnc3ccc(-c4ccc5c(c4)CC(=O)N5)cc3c21 [Example 49, 1-(1,3-Dimethyl-1H-pyrazol-4-yl)-3-methyl-8-(2-oxo-2,3-dihydro-1H-indol-5-yl)-1,3-dihydro-imidazo[4,5-c]quinolin-2-one] |
| 144 | 169 | – | – | – | – | CCOc1ccc(-c2ccc3ncc4c(c3c2)n(-c2cn(C)nc2C)c(=O)n4C)cc1OC [Example 29.3, 1-(1,3-Dimethyl-1H-pyrazol-4-yl)-8-(4-ethoxy-3-methoxy-phenyl)-3-methyl-1,3-dihydro-imidazo[4,5-c]quinolin-2-one] |
| 112 | 341 | – | – | – | – | Cc1nn(C)cc1-n1c(=O)n(C)c2cnc3ccc(-c4cnc5c(c4)nnn5C)cc3c21 [Example 72, 1-(1,3-Dimethyl-1H-pyrazol-4-yl)-3-methyl-8-(3-methyl-3H-[1,2,3]triazolo[4,5-b]pyridin-6-yl)-1,3-dihydro-imidazo[4,5-c]quinolin-2-one] |
| 68 | 185 | – | – | – | – | COc1ccc(-c2ccc3ncc4c(c3n2)n(-c2cn(C)nc2C)c(=O)n4C)cc1OC [Example 250, 8-(3,4-Dimethoxy-phenyl)-1-(1,3-dimethyl-1H-pyrazol-4-yl)-3-methyl-1,3-dihydro-1,3,5,9-tetraaza-cyclopenta[a]naphthalen-2-one] |
| 82 | 279 | – | – | – | – | CNc1ccc(-c2ccc3ncc4c(c3c2)n(-c2cn(C)nc2C)c(=O)n4C)cn1 [Example 118.2, 1-(1,3-Dimethyl-1H-pyrazol-4-yl)-3-methyl-8-(6-methylamino-pyridin-3-yl)-1,3-dihydro-imidazo[4,5-c]quinolin-2-one] |
